Measured values as given in patent publication US20230085307A1, “PYRIDAZINONE COMPOUND AND HERBICIDE” (NISSAN CHEMICAL CORPORATION, priority 2019, published 2023).

Legend:
barnyard grass [1] = test: Test Example 3: herbicidal effect by foliage application, Wagner pot (Table 18, symbol H); type: in vivo, barnyard grass (Echinochloa crus-galli)
Method in brief: (§1)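 Plants were sown in alluvial soil held under 0.1–0.5 cm standing water and grown 14 days in a greenhouse at 25–30 °C. An emulsifiable formulation, water-diluted to the set dose, was then sprayed onto the foliage, and effects were scored three weeks later using previously defined criteria.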

Chinese sprangletop = test: Test Example 3: herbicidal effect by foliage application, Wagner pot (Table 18, symbol D); type: in vivo, chinese sprangletop (Leptochloa chinensis)
Method in brief: as §1

rice flat sedge = test: Test Example 3: herbicidal effect by foliage application, Wagner pot (Table 18, symbol E); type: in vivo, rice flat sedge (Cyperus iria)
Method in brief: as §1

southern crabgrass [2] = test: Test Example 4: herbicidal effect by soil treatment (Table 19, symbol F); type: in vivo, southern crabgrass (Digitaria ciliaris)
Method in brief: (§2)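 Emulsion of test compound, water-diluted to predetermined amount, sprayed on soil after sowing (seed depth ~1.5 cm, sterilized diluvial soil). Greenhouse, 25–30° C. Effect graded at three weeks post-spray.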

green foxtail [3] = test: Test Example 4: herbicidal effect by soil treatment (Table 19, symbol G); type: in vivo, green foxtail (Setaria viridis)
Method in brief: as §2

barnyard grass [4] = test: Test Example 4: herbicidal effect by soil treatment (Table 19, symbol H); type: in vivo, barnyard grass (Echinochloa crus-galli)
Method in brief: as §2

wild oat [5] = test: Test Example 4: herbicidal effect by soil treatment (Table 19, symbol I); type: in vivo, wild oat (Avena fatua)
Method in brief: as §2

Italian ryegrass [6] = test: Test Example 4: herbicidal effect by soil treatment (Table 19, symbol K); type: in vivo, Italian ryegrass (Lolium multiflorum)
Method in brief: as §2

windgrass [7] = test: Test Example 4: herbicidal effect by soil treatment (Table 19, symbol L); type: in vivo, windgrass (Apera spica-venti)
Method in brief: as §2

velvetleaf [8] = test: Test Example 4: herbicidal effect by soil treatment (Table 19, symbol M); type: in vivo, velvetleaf (Abutilon theophrasti)
Method in brief: as §2

redroot pigweed = test: Test Example 4: herbicidal effect by soil treatment (Table 19, symbol N); type: in vivo, redroot pigweed (Amaranthus retroflexus)
Method in brief: as §2

lambsquarters [9] = test: Test Example 4: herbicidal effect by soil treatment (Table 19, symbol O); type: in vivo, lambsquarters (Chenopodium album)
Method in brief: as §2

chickweed = test: Test Example 4: herbicidal effect by soil treatment (Table 19, symbol P); type: in vivo, common chickweed (Stellaria media)
Method in brief: as §2

persian speedwell [10] = test: Test Example 4: herbicidal effect by soil treatment (Table 19, symbol R); type: in vivo, Persian speedwell (Veronica persica)
Method in brief: as §2

southern crabgrass [11] = test: Test Example 5: herbicidal effect by foliage application, plastic box (Table 20, symbol F); type: in vivo, southern crabgrass (Digitaria ciliaris); settings: foliage application, 320 g/ha, 3 weeks after application
Method in brief: (§3)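 Post-emergence foliar test in sterilized diluvial soil. Compound applied as water-diluted emulsion at a predetermined rate to 14-day-old plants; evaluation at three weeks.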

green foxtail [12] = test: Test Example 5: herbicidal effect by foliage application, plastic box (Table 20, symbol G); type: in vivo, green foxtail (Setaria viridis); settings: foliage application, 320 g/ha, 3 weeks after application
Method in brief: as §3

barnyard grass [13] = test: Test Example 5: herbicidal effect by foliage application, plastic box (Table 20, symbol H); type: in vivo, barnyard grass (Echinochloa crus-galli); settings: foliage application, 320 g/ha, 3 weeks after application
Method in brief: as §3

wild oat [14] = test: Test Example 5: herbicidal effect by foliage application, plastic box (Table 20, symbol I); type: in vivo, wild oat (Avena fatua); settings: foliage application, 320 g/ha, 3 weeks after application
Method in brief: as §3

blackgrass [15] = test: Test Example 5: herbicidal effect by foliage application, plastic box (Table 20, symbol J); type: in vivo, blackgrass (Alopecurus myosuroides); settings: foliage application, 320 g/ha, 3 weeks after application
Method in brief: as §3

Italian ryegrass [16] = test: Test Example 5: herbicidal effect by foliage application, plastic box (Table 20, symbol K); type: in vivo, Italian ryegrass (Lolium multiflorum); settings: foliage application, 320 g/ha, 3 weeks after application
Method in brief: as §3

windgrass [17] = test: Test Example 5: herbicidal effect by foliage application, plastic box (Table 20, symbol L); type: in vivo, windgrass (Apera spica-venti); settings: foliage application, 320 g/ha, 3 weeks after application
Method in brief: as §3

velvetleaf [18] = test: Test Example 5: herbicidal effect by foliage application, plastic box (Table 20, symbol M); type: in vivo, velvetleaf (Abutilon theophrasti); settings: foliage application, 320 g/ha, 3 weeks after application
Method in brief: as §3

lambsquarters [19] = test: Test Example 5: herbicidal effect by foliage application, plastic box (Table 20, symbol O); type: in vivo, lambsquarters (Chenopodium album); settings: foliage application, 320 g/ha, 3 weeks after application
Method in brief: as §3

persian speedwell [20] = test: Test Example 5: herbicidal effect by foliage application, plastic box (Table 20, symbol R); type: in vivo, Persian speedwell (Veronica persica); settings: foliage application, 320 g/ha, 3 weeks after application
Method in brief: as §3

blackgrass [21] = test: Test Example 4: herbicidal effect by soil treatment (Table 19, symbol J); type: in vivo, blackgrass (Alopecurus myosuroides); settings: amount of applied herbicide 320 g/ha
Method in brief: as §2

[22] = amount of applied herbicide 320 g/ha

Cc1nn(C)c(=O)c(-c2c(-c3ccc(F)cc3)sc3ccc(F)cc23)c1OCC(=O)c1ccccc1 [2-008]
herbicidal effect on H (barnyard grass), rating 0-5 (barnyard grass [1]; 320 g/ha): 2 (Herbicidal rate of 20% or more and less than 40%)
herbicidal effect on D (Chinese sprangletop), rating 0-5 (Chinese sprangletop; 320 g/ha): 1 (Herbicidal rate of 5% or more and less than 20%)
herbicidal effect on E (rice flat sedge), rating 0-5 (rice flat sedge; 320 g/ha): 4 (Herbicidal rate of 70% or more and less than 90%)
herbicidal effect rating, F: southern crabgrass (southern crabgrass [2]; 320 g/ha): 0 (Herbicidal rate of 5% or less (almost no effect))
herbicidal effect rating, G: green foxtail (green foxtail [3]; 320 g/ha): 0 (Herbicidal rate of 5% or less (almost no effect))
herbicidal effect rating, H: barnyard grass (barnyard grass [4]; 320 g/ha): 0 (Herbicidal rate of 5% or less (almost no effect))
herbicidal effect rating, I: wild oat (wild oat [5]; 320 g/ha): 0 (Herbicidal rate of 5% or less (almost no effect))
herbicidal effect rating, K: Italian ryegrass (Italian ryegrass [6]; 320 g/ha): 0 (Herbicidal rate of 5% or less (almost no effect))
herbicidal effect rating, L: windgrass (windgrass [7]; 320 g/ha): 0 (Herbicidal rate of 5% or less (almost no effect))
herbicidal effect rating, M: velvetleaf (velvetleaf [8]; 320 g/ha): 0 (Herbicidal rate of 5% or less (almost no effect))
herbicidal effect rating, N: redroot pigweed (redroot pigweed; 320 g/ha): 4 (Herbicidal rate of 70% or more and less than 90%)
herbicidal effect rating, O: lambsquarters (lambsquarters [9]; 320 g/ha): 0 (Herbicidal rate of 5% or less (almost no effect))
herbicidal effect rating, P: chickweed (chickweed; 320 g/ha): 0 (Herbicidal rate of 5% or less (almost no effect))
herbicidal effect rating, R: persian speedwell (persian speedwell [10]; 320 g/ha): 0 (Herbicidal rate of 5% or less (almost no effect))
effect on southern crabgrass (F) (southern crabgrass [11]): 0 (Herbicidal rate of 5% or less (almost no effect))
effect on green foxtail (G) (green foxtail [12]): 0 (Herbicidal rate of 5% or less (almost no effect))
effect on barnyard grass (H) (barnyard grass [13]): 0 (Herbicidal rate of 5% or less (almost no effect))
effect on wild oat (I) (wild oat [14]): 0 (Herbicidal rate of 5% or less (almost no effect))
effect on blackgrass (J) (blackgrass [15]): 0 (Herbicidal rate of 5% or less (almost no effect))
effect on Italian ryegrass (K) (Italian ryegrass [16]): 3 (Herbicidal rate of 40% or more and less than 70%)
effect on windgrass (L) (windgrass [17]): 0 (Herbicidal rate of 5% or less (almost no effect))
effect on velvetleaf (M) (velvetleaf [18]): 1 (Herbicidal rate of 5% or more and less than 20%)
effect on lambsquarters (O) (lambsquarters [19]): 1 (Herbicidal rate of 5% or more and less than 20%)
effect on persian speedwell (R) (persian speedwell [20]): 3 (Herbicidal rate of 40% or more and less than 70%)

COc1cc(Cl)ccc1-c1sc2ccc(F)cc2c1-c1c(O)c(C)nn(C)c1=O [2-368]
herbicidal effect on H: barnyard grass (barnyard grass [1]; [22]): 4 (Herbicidal rate of 70% or more and less than 90%)
herbicidal effect on D: Chinese sprangletop (Chinese sprangletop; [22]): 3 (Herbicidal rate of 40% or more and less than 70%)
herbicidal effect on E: rice flat sedge (rice flat sedge; [22]): 3 (Herbicidal rate of 40% or more and less than 70%)
herbicidal effect, F: southern crabgrass (southern crabgrass [2]; [22]): 0 (Herbicidal rate of 5% or less (almost no effect))
herbicidal effect, G: green foxtail (green foxtail [3]; [22]): 0 (Herbicidal rate of 5% or less (almost no effect))
herbicidal effect, H: barnyard grass (barnyard grass [4]; [22]): 0 (Herbicidal rate of 5% or less (almost no effect))
herbicidal effect, I: wild oat (wild oat [5]; [22]): 0 (Herbicidal rate of 5% or less (almost no effect))
herbicidal effect, J: blackgrass (blackgrass [21]): 0 (Herbicidal rate of 5% or less (almost no effect))
herbicidal effect, K: Italian ryegrass (Italian ryegrass [6]; [22]): 0 (Herbicidal rate of 5% or less (almost no effect))
herbicidal effect, L: windgrass (windgrass [7]; [22]): 4 (Herbicidal rate of 70% or more and less than 90%)
herbicidal effect, M: velvetleaf (velvetleaf [8]; [22]): 0 (Herbicidal rate of 5% or less (almost no effect))
herbicidal effect, N: redroot pigweed (redroot pigweed; [22]): 2 (Herbicidal rate of 20% or more and less than 40%)
herbicidal effect, O: lambsquarters (lambsquarters [9]; [22]): 3 (Herbicidal rate of 40% or more and less than 70%)
herbicidal effect, P: chickweed (chickweed; [22]): 0 (Herbicidal rate of 5% or less (almost no effect))
herbicidal effect, R: persian speedwell (persian speedwell [10]; [22]): 0 (Herbicidal rate of 5% or less (almost no effect))
